Measured values reported in patent EP0201420A1, “2-(2-Acetamido-2-deoxy-3-O-D-glucopyranosyl)-alkanoyl-aminoacyl-nor leucin glycopeptides or derivatives of these glycopeptides, and immunoadjuvant compositions containing them” (ANVAR Agence Nationale de Valorisation de la Recherche, priority 1985, dated 1986).

test system: réponse humorale de la souris swiss femelle à la sérumalbumine bovine; experiment: Immunoadjuvant activity: humoral antibody response to bovine serum albumin, measured by passive haemagglutination; format: in vivo; conditions: 100 µg per mouse s.c. with 0,5 mg bovine serum albumin in aqueous solution; primary response day 28, secondary response day 36
Description: L'activité immunoadjuvante a été étudiée en mettant en jeu la réponse humorale de la souris swiss femelle à la sérumalbumine bovine.
Des groupes de huit souris âgées de 2 mois reçoivent par voie sous-cutanée 0,5 mg de sérumalbumine bovine avec ou sans les substances à tester, à raison de 100 µg par souris. Les administrations sont faites en solution aqueuse.
Au jour 28, on effectue des prélèvements du sérum sanguin sur les souris traitées et la réponse primaire en anticorps est déterminée par hémagglutination passive en utilisant des hématies de moutons traitées à la formaline et recouvertes de l'antigène étudié selon la méthode décrite par A. A. HIRATA et M.V. BRANDISSE (5. immunol.100, 541 - 648, 1968). Au jour 30 les souris reçoivent une injection de rappel avec les antigènes seuls (100 µg par souris) et au jour 36 on mesure la réponse secondaire induite par la même technique de mesure .
Les résultats de ces essais figurent dans le tableau 1 qui suit. Ce tableau contient également les résultats mesurés dans les mêmes conditions chez les animaux témoins et chez des animaux qui ont été traités de la même manière avec le MDP à titre de substance de comparaison.

SMILES	activité immunoadjuvante
CCCC[C@@H](NC(=O)[C@H](C)NC(=O)[C@@H](C)O[C@H]1[C@H](O)[C@@H](CO)OC(O)[C@@H]1NC(C)=O)C(N)=O (stereo partly drawn) [compound 1]	n'a pas témoigné d'une activité spécifique
CCCCOC(=O)[C@@H](CCCC)NC(=O)[C@H](C)NC(=O)[C@@H](C)O[C@H]1[C@H](O)[C@@H](CO)OC(O)[C@@H]1NC(C)=O (stereo partly drawn) [compound 2]	une activité qui se rapproche sensiblement
CCCCOC(=O)[C@@H](CCCC)NC(=O)[C@H](C)NC(=O)CO[C@H]1[C@H](O)[C@@H](CO)OC(O)[C@@H]1NC(C)=O (stereo partly drawn) [compound 5]	une activité qui se rapproche sensiblement
CCCC[C@@H](NC(=O)[C@H](C)NC(=O)[C@@H](C)O[C@H]1[C@H](O)[C@@H](CO)OC(O)[C@@H]1NC(C)=O)C(=O)OC (stereo partly drawn) [compound 6]	une activité qui se rapproche sensiblement

test system: globules rouges de mouton; experiment: Immunosuppression test: high dose given before sheep red blood cells, haemolytic plaques of splenocytes counted (Cunningham method); format: in vivo, souris; conditions: 1 mg per mouse 2 days before 10^8 sheep red blood cells; splenocytes taken 4 days after; experiment repeated 3 times
Description: Dans l'expérience qui figure au tableau Ibis et qui a été répétéa 3 fois, le MDP et les autres substances ont été injectés à des souris à une dose 10 ou 20 fois plus élevée que d'habitude (1 mg) 2 jours avant l'injection de 10^8 globules rouges de mouton. Les splénocytes ont été pélevés et mis en culture 4 jours après l'injection de globules rouges de mouton et le nombre de plages hémolytiques dosées selon la méthode de Cunningham.

SMILES	inhibition de la production d'anticorps (nombre de plages hémolytiques)
CC(=O)N[C@H]1C(O)O[C@H](CO)[C@@H](O)[C@@H]1O[C@H](C)C(=O)N[C@@H](C)C(=O)N[C@H](CCC(=O)O)C(N)=O (stereo partly drawn) [MDP, N-acétyl-muramyl-L-alanyl-D-isoglutamine]	inhibe totalement la production d'anticorps
CCCCOC(=O)[C@@H](CCC(N)=O)NC(=O)[C@H](C)NC(=O)[C@@H](C)O[C@H]1[C@H](O)[C@@H](CO)OC(O)[C@@H]1NC(C)=O (stereo partly drawn) [murabutide]	inhibe totalement la production d'anticorps
